Data from PubChem BioAssay (NCI).
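Method: 48-hour compound exposure of cells in 96-well plates, five concentrations, linear interpolation of endpoints. At the GI50, growth is halved. TGI is the concentration that stops growth completely.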

Columns and labels:
Assay in all cases: NCI-60 cell line screen, 48 h
OVCAR-5 ovarian = test system: OVCAR-5 ovarian
LOX IMVI melanoma = test system: LOX IMVI melanoma
SR leukemia = test system: SR leukemia
HCC-2998 colon = test system: HCC-2998 colon
RXF 393 renal = test system: RXF 393 renal
NCI/ADR-RES ovarian = test system: NCI/ADR-RES ovarian
UO-31 renal = test system: UO-31 renal
M14 melanoma = test system: M14 melanoma

Row | SMILES | GI50 (OVCAR-5 ovarian) | TGI (OVCAR-5 ovarian) | GI50 (LOX IMVI melanoma) | TGI (LOX IMVI melanoma) | GI50 (SR leukemia) | TGI (SR leukemia) | GI50 (HCC-2998 colon) | TGI (HCC-2998 colon) | GI50 (RXF 393 renal) | TGI (RXF 393 renal) | GI50 (NCI/ADR-RES ovarian) | TGI (NCI/ADR-RES ovarian) | GI50 (UO-31 renal) | TGI (UO-31 renal) | GI50 (M14 melanoma) | TGI (M14 melanoma)
1 | CN(C)CC(=O)N1CCC(c2ccc(NC(=O)c3ncc(C#N)[nH]3)c(C3=CCCCC3)c2)CC1 | 10.8 µM | 25.2 µM | 3.17 µM | 12.7 µM | 2.58 µM | 6.52 µM | 5.74 µM | 19 µM | 3.25 µM | 14.2 µM | 14.8 µM | 33.8 µM | 3.61 µM | 15 µM | 2.21 µM | 4.97 µM
2 | Cc1ccn2c3c(c(C(=O)O)c2c1)C(=O)c1ccccc1C3=O | 30.5 µM | > 100 µM | 4.36 µM | > 100 µM | > 30.5 µM | > 100 µM | 4.58 µM | > 100 µM | 10.4 µM | > 100 µM | 49.8 µM | > 100 µM | 25.8 µM | > 100 µM | 1.11 µM | 2.64 µM
3 | O=C(NNc1nc2c(F)cccc2n2cccc12)c1cnccn1 | 1.51 µM | > 61.1 µM | 0.3 µM | 5.83 µM | 0.392 µM | > 37.7 µM | 0.867 µM | 28.6 µM | 0.986 µM | 7.29 µM | 0.327 µM | 23.3 µM | 0.216 µM | 13.6 µM | 0.269 µM | 11.7 µM
4 | COc1ccc(C(=S)N2CCN(c3cccc(Cl)c3)CC2)cc1 | > 100 µM | > 100 µM | > 100 µM | > 100 µM | > 100 µM | > 100 µM | > 100 µM | > 100 µM | > 100 µM | > 100 µM | 97 µM | > 100 µM | 43.3 µM | > 100 µM | > 100 µM | > 100 µM
5 | COC1(C(=O)N2Cc3nc(Cl)nc(N[C@H](C)c4cc(N)cc(C(F)(F)F)c4)c3C2)CCOCC1 | 18.2 µM | 58 µM | 15.6 µM | 29.2 µM | 2.92 µM | 48.8 µM | 20.8 µM | 59.2 µM | 15.8 µM | 43.6 µM | 24.6 µM | > 94.5 µM | 7.63 µM | 43.3 µM | 17.8 µM | 40.6 µM
6 | O=C(CCN1CCN(c2cnc3ccccc3n2)CC1)c1csc2ccccc12 | > 100 µM | > 100 µM | 26 µM | 70.1 µM | 36.1 µM | > 100 µM | > 100 µM | > 100 µM | 18.7 µM | 49.5 µM | > 100 µM | > 100 µM | 25.1 µM | 77.5 µM | 75.2 µM | > 100 µM
7 | C=CC(=O)N[C@H]1C=C(C)c2c(-c3cnc4ccccc4c3)c3c(N)ncnc3n2C1 | 21.2 µM | 93.3 µM | 7.16 µM | 23.5 µM | 18.3 µM | > 100 µM | 22.4 µM | 45 µM | 2.68 µM | 11.7 µM | 21.3 µM | > 87.9 µM | 0.61 µM | 11.5 µM | 10 µM | 32.4 µM
8 | COc1ccc(-c2nn(-c3cccc(Cl)c3)cc2C2CC(c3ccccc3)=NN2C(C)=O)cc1 (centres undefined) | > 100 µM | > 100 µM | 11 µM | > 100 µM | 8.98 µM | > 100 µM | > 100 µM | > 100 µM | 6.49 µM | 30.8 µM | 6.96 µM | > 100 µM | 6.36 µM | > 100 µM | 7.68 µM | > 100 µM
9 | C#Cc1cnc(=O)n(C2CC(O)C(CO)O2)c1 (centres undefined) | > 100 µM | > 100 µM | > 100 µM | > 100 µM | 91.5 µM | > 100 µM | > 100 µM | > 100 µM | > 100 µM | > 100 µM | > 100 µM | > 100 µM | > 100 µM | > 100 µM | > 100 µM | > 100 µM
10 | CN1CCN(Cc2ccc(C(=O)Nc3cncc(C#Cc4cnc(N)c5ccccc45)c3)cc2C(F)(F)F)CC1 | 2.67 µM | 6.91 µM | 1.75 µM | 3.17 µM | 2.09 µM | 5.17 µM | 2.19 µM | 4.74 µM | 1.55 µM | 3.01 µM | 1.93 µM | 4.22 µM | 1.59 µM | 2.98 µM | 4.22 µM | 14.8 µM
11 | NC(N)=N/N=C(/c1ccccc1)c1ccc(F)cc1 | 1.03 µM | 18.7 µM | 0.513 µM | 10.7 µM | 0.286 µM | 6.11 µM | 0.416 µM | 2.09 µM | 0.291 µM | 3.54 µM | 0.766 µM | 4.19 µM | 0.991 µM | 14.6 µM | 0.209 µM | 0.506 µM
12 | COc1cc(C(=O)NC2c3ccccc3-c3ccccc32)c(N)cc1OCc1ccccc1 | 52.5 µM | > 100 µM | 63.6 µM | > 100 µM | 98.6 µM | > 100 µM | > 100 µM | > 100 µM | 13.5 µM | 34.7 µM | 35.3 µM | > 100 µM | 30.2 µM | > 100 µM | 47 µM | > 100 µM
13 | COc1cccc(/C=C/C(=O)c2cc3c(N)c(C(=O)Nc4ccccc4C)sc3nc2C)c1 | 1.21 µM | 3.76 µM | 0.875 µM | 1.59 µM | 1.09 µM | 4.2 µM | 0.955 µM | 1.87 µM | 0.768 µM | 1.53 µM | 1.51 µM | > 50 µM | 0.863 µM | 1.72 µM | 1.59 µM | 6.42 µM
14 | CC(C)(C)c1cc(O)c(O)c(C(C)(C)C)c1 | 11.1 µM | 23.3 µM | 3.05 µM | 12.9 µM | 2.38 µM | 6.64 µM | 4.44 µM | 16.6 µM | 4.4 µM | 13.5 µM | 3.54 µM | 17.9 µM | 2.15 µM | 4.98 µM | 3.91 µM | 13.8 µM
